Tests used:
[1] = (§1) The drug is tested on Z-019 corresponding to rat gut metagenome with ENA study accession number: PRJEB37062 and ENA sample accession number: ERS12561818 for biotransformation under anaerobic condition. The drug concentrations were measured over 9 timepoints collected between 0 and 24 hours of incubation by liquid-chromatography-coupled mass spectrometry (LC–MS); conditions: 2 µM
[2] = as §1, with “Z-014” for “Z-019”, “ERS12561814” for “ERS12561818”; conditions: 2 µM
[3] = as §1, with “Z-012” for “Z-019”, “to” for “to rat gut”, “ERS12561812” for “ERS12561818”; conditions: 2 µM
[4] = as §1, with “Z-008” for “Z-019”, “to” for “to rat gut”, “ERS12561808” for “ERS12561818”; conditions: 2 µM
[5] = as §1, with “on Z-006” for “on Z-019”, “to mouse” for “to rat”, “number: ERS12561806” for “number: ERS12561818”; conditions: 2 µM
[6] = as §1, with “on Z-002” for “on Z-019”, “to rabbit” for “to rat”, “number: ERS12561802” for “number: ERS12561818”; conditions: 2 µM
[7] = as §1, with “on WLS-310” for “on Z-019”, “to human” for “to rat”, “number: ERS12561785” for “number: ERS12561818”; conditions: 2 µM
[8] = as §1, with “on WLS-170” for “on Z-019”, “to human” for “to rat”, “number: ERS12561762” for “number: ERS12561818”; conditions: 2 µM
[9] = as §1, with “on WLS-098” for “on Z-019”, “to human” for “to rat”, “number: ERS12561754” for “number: ERS12561818”; conditions: 2 µM
[10] = as §1, with “on WLS-052” for “on Z-019”, “to human” for “to rat”, “number: ERS12561747” for “number: ERS12561818”; conditions: 2 µM
[11] = as §1, with “on WLS-039” for “on Z-019”, “to human” for “to rat”, “number: ERS12561746” for “number: ERS12561818”; conditions: 2 µM
[12] = as §1, with “on WLS-010” for “on Z-019”, “to human” for “to rat”, “number: ERS12561743” for “number: ERS12561818”; conditions: 2 µM
[13] = human gut metagenome, 24 h, 2 µM
[14] = human gut metagenome, 24 h, 2 µM; remark: listed apart in the source
[15] = human gut metagenome, 24 h, 2 µM; remark: listed apart in the source
[16] = human gut metagenome, 24 h, 2 µM; remark: listed apart in the source
[17] = human gut metagenome, 24 h, 2 µM; remark: listed apart in the source
[18] = human gut metagenome, 24 h, 2 µM; remark: listed apart in the source
[19] = human gut metagenome, 24 h, 2 µM; remark: listed apart in the source
[20] = human gut metagenome, 24 h, 2 µM; remark: listed apart in the source
Note: call rule not given here.

Row | Structure (SMILES) | Bacterial Biotransformation [1] | Bacterial Biotransformation [2] | Bacterial Biotransformation [3] | Bacterial Biotransformation [4] | Bacterial Biotransformation [5] | Bacterial Biotransformation [6] | Bacterial Biotransformation [7] | Bacterial Biotransformation [8] | Bacterial Biotransformation [9] | Bacterial Biotransformation [10] | Bacterial Biotransformation [11] | Bacterial Biotransformation [12] | Bacterial Biotransformation [13] | Bacterial Biotransformation [14] | Bacterial Biotransformation [15] | Bacterial Biotransformation [16] | Bacterial Biotransformation [17] | Bacterial Biotransformation [18] | Bacterial Biotransformation [19] | Bacterial Biotransformation [20]
1 | COC(=O)[C@H](c1ccccc1Cl)N1CCc2sccc2C1.O=S(=O)(O)O [CLOPIDOGREL BISULFATE] | Compound NOT metabolized | Compound NOT metabolized | Compound metabolized | Compound metabolized | Compound metabolized | Compound metabolized | Compound metabolized | Compound metabolized | Compound metabolized | Compound metabolized | Compound NOT metabolized | Compound metabolized | Compound metabolized | Compound metabolized | Compound metabolized | Compound metabolized | Compound metabolized | Compound metabolized | Compound metabolized | Compound metabolized
2 | O=P1(N(CCCl)CCCl)NCCCO1 (stereo not given) [CYCLOPHOSPHAMIDE ANHYDROUS] | Compound NOT metabolized | Compound NOT metabolized | Compound NOT metabolized | Compound NOT metabolized | Compound NOT metabolized | Compound NOT metabolized | Compound metabolized | Compound metabolized | Compound metabolized | Compound NOT metabolized | Compound NOT metabolized | Compound NOT metabolized | Compound NOT metabolized | Compound NOT metabolized | Compound metabolized | Compound metabolized | Compound metabolized | Compound NOT metabolized | Compound NOT metabolized | Compound metabolized
3 | Br.COc1ccc2c(c1)[C@]13CCCC[C@@H]1[C@H](C2)N(C)CC3.O [DEXTROMETHORPHAN HYDROBROMIDE] | Compound NOT metabolized | Compound NOT metabolized | Compound NOT metabolized | Compound NOT metabolized | Compound NOT metabolized | Compound metabolized | Compound metabolized | Compound NOT metabolized | Compound metabolized | Compound NOT metabolized | Compound NOT metabolized | Compound metabolized | Compound NOT metabolized | Compound NOT metabolized | Compound metabolized | Compound metabolized | Compound NOT metabolized | Compound NOT metabolized | Compound NOT metabolized | Compound metabolized
4 | CCN(CC)CCOC(=O)C1(C2CCCCC2)CCCCC1 [DICYCLOMINE] | Compound NOT metabolized | Compound NOT metabolized | Compound metabolized | Compound NOT metabolized | Compound NOT metabolized | Compound metabolized | Compound metabolized | Compound metabolized | Compound NOT metabolized | Compound NOT metabolized | Compound NOT metabolized | Compound metabolized | Compound metabolized | Compound NOT metabolized | Compound metabolized | Compound metabolized | Compound metabolized | Compound NOT metabolized | Compound NOT metabolized | Compound metabolized
5 | COc1ccc([C@@H]2Sc3ccccc3N(CCN(C)C)C(=O)[C@@H]2OC(C)=O)cc1 [DILTIAZEM] | Compound NOT metabolized | Compound NOT metabolized | Compound metabolized | Compound NOT metabolized | Compound NOT metabolized | Compound metabolized | Compound metabolized | Compound metabolized | Compound metabolized | Compound NOT metabolized | Compound metabolized | Compound metabolized | Compound NOT metabolized | Compound metabolized | Compound metabolized | Compound metabolized | Compound metabolized | Compound metabolized | Compound metabolized | Compound metabolized
6 | OCCN(CCO)c1nc(N2CCCCC2)c2nc(N(CCO)CCO)nc(N3CCCCC3)c2n1 [DIPYRIDAMOLE] | Compound NOT metabolized | Compound NOT metabolized | Compound NOT metabolized | Compound NOT metabolized | Compound NOT metabolized | Compound metabolized | Compound metabolized | Compound metabolized | Compound metabolized | Compound metabolized | Compound metabolized | Compound metabolized | Compound NOT metabolized | Compound metabolized | Compound metabolized | Compound NOT metabolized | Compound metabolized | Compound NOT metabolized | Compound NOT metabolized | Compound metabolized
7 | CN(C)CCOC(C)(c1ccccc1)c1ccccn1.O=C(O)CCC(=O)O (stereo not given) [DOXYLAMINE SUCCINATE] | Compound NOT metabolized | Compound NOT metabolized | Compound NOT metabolized | Compound NOT metabolized | Compound NOT metabolized | Compound NOT metabolized | Compound NOT metabolized | Compound NOT metabolized | Compound NOT metabolized | Compound NOT metabolized | Compound NOT metabolized | Compound NOT metabolized | Compound NOT metabolized | Compound NOT metabolized | Compound NOT metabolized | Compound NOT metabolized | Compound NOT metabolized | Compound NOT metabolized | Compound NOT metabolized | Compound NOT metabolized
8 | Br.CN1CCC[C@@H]1Cc1c[nH]c2ccc(CCS(=O)(=O)c3ccccc3)cc12 [ELETRIPTAN HYDROBROMIDE] | Compound NOT metabolized | Compound NOT metabolized | Compound NOT metabolized | Compound NOT metabolized | Compound NOT metabolized | Compound metabolized | Compound metabolized | Compound metabolized | Compound metabolized | Compound NOT metabolized | Compound NOT metabolized | Compound metabolized | Compound NOT metabolized | Compound NOT metabolized | Compound metabolized | Compound metabolized | Compound NOT metabolized | Compound NOT metabolized | Compound NOT metabolized | Compound metabolized

Reference: ChEMBL document CHEMBL5724914, “Linking interpersonal differences in gut microbiota composition and drug biotransformation activity” (2024)
